Assay results as given in US20100048503A1, “COMPOSITION FOR TREATMENT OF PANCREATIC CANCER” (Eisai R & D Management Co., Ltd., priority 2007, published 2010).
Where a name gives a salt, the structure may show the parent alone.

Columns and labels:
[1] = test system: Human pancreatic cancer cell line AsPC-1; test: Combination use with gemcitabine hydrochloride in subcutaneous transplanted (xenograft) model in nude mouse; type: in vivo; details: AsPC-1 xenograft; for Relative tumor volume on Day 29 Average ± standard deviation: nude mouse
Experimental: Human pancreatic cancer cell line AsPC-1 (purchased from ATCC) was cultured in RPMI1640 (containing 10% FBS) in a 5% carbon dioxide gas incubator at 37° C. to about 80% confluence, and then the cells were collected with trypsin-EDTA. A 5×10^7 cells/mL suspension was prepared with a phosphate buffer, and each 0.1 mL of the resulting cell suspension was subcutaneously transplanted to a nude mouse at the side of its body. Eleven days after the transplantation, 4-(3-chloro-4-(cyclopropylaminocarbonyl)aminophenoxy)-7-methoxy-6-quinolinecarboxamide (3, 10 or 30 mg/kg, once a day for four weeks, oral) and gemcitabine hydrochloride (purchased from Eli Lilly Japan) (200 mg/kg, four times every three days, intravenous) were administered alone or in combination. The major and minor axes of tumors were measured with Digimatic caliper (Mitsutoyo Corporation), and tumor volumes and relative tumor volumes were calculated according to the following formulae: […] Relative Tumor Volume (RTV)=Tumor volume on measurement day/Tumor volume on the first administration day. […] The first day of administration was considered Day 1.

[2] = test system: Human pancreatic cancer cell line AsPC-1; test: Combination use with erlotinib hydrochloride in subcutaneous transplanted (xenograft) model in nude mouse; type: in vivo; details: oral, AsPC-1 xenograft; for Relative tumor volume on Day 29 Average ± standard deviation: once a day for four weeks, nude mouse
Experimental: Human pancreatic cancer cell line AsPC-1 (purchased from ATCC) was cultured in RPMI1640 (containing 10% FBS) in a 5% carbon dioxide gas incubator at 37° C. to about 80% confluence, and then the cells were collected with trypsin-EDTA. A 5×10^7 cells/mL suspension was prepared with a phosphate buffer, and each 0.11 mL of the resulting cell suspension was subcutaneously transplanted to a nude mouse at the side of its body. Ten days after the transplantation, 4-(3-chloro-4-(cyclopropylaminocarbonyl)aminophenoxy)-7-methoxy-6-quinolinecarboxamide (10 mg/kg, once a day for four weeks) and erlotinib hydrochloride (50 mg/kg, once a day for four weeks) were orally administered alone or in combination. The major and minor axes of tumors were measured with Digimatic caliper (Mitsutoyo Corporation), and tumor volumes and relative tumor volumes were calculated according to the following formulae: […] Relative Tumor Volume (RTV)=Tumor volume on measurement day/Tumor volume on the first administration day. […] The first day of administration was considered Day 1.

[3] = Compound A 3, 10 or 30 mg/kg oral in combination with gemcitabine hydrochloride 200 mg/kg intravenous
[4] = Compound A 10 mg/kg in combination with erlotinib hydrochloride 50 mg/kg

COc1cc2nccc(Oc3ccc(NC(=O)NC4CC4)c(Cl)c3)c2cc1C(N)=O [Compound A, 4-(3-chloro-4-(cyclopropylaminocarbonyl)aminophenoxy)-7-methoxy-6-quinolinecarboxamide]
Relative tumor volume on Day 29 Average ± standard deviation ([1]; Compound A 3 mg/kg alone, once a day for four weeks, oral): 2.10 ± 0.64
Relative tumor volume on Day 29 Average ± standard deviation ([1]; Compound A 10 mg/kg alone, once a day for four weeks, oral): 1.79 ± 0.56
Relative tumor volume on Day 29 Average ± standard deviation ([1]; Compound A 30 mg/kg alone, once a day for four weeks, oral): 0.88 ± 0.27
Anti-tumor effect of combination use compared with either agent alone [1, 3]: superior anti-tumor effect
Effect when used in combination with gemcitabine hydrochloride [1, 3]: additive effect
Relative tumor volume on Day 29 Average ± standard deviation ([2]; Compound A 10 mg/kg alone): 1.84 ± 1.31
Anti-tumor effect of combination use compared with either agent alone [2, 4]: superior anti-tumor effect
Effect when used in combination with erlotinib hydrochloride [2, 4]: additive effect

C#Cc1cccc(Nc2ncnc3cc(OCCOC)c(OCCOC)cc23)c1 [Erlotinib hydrochloride, 4-(3-ethynylphenylamino)-6,7-bis(2-methoxyethoxy)-quinazoline, reference compound]
Relative tumor volume on Day 29 Average ± standard deviation ([2]; Erlotinib hydrochloride 50 mg/kg alone): 4.54 ± 0.18

Nc1ccn([C@@H]2O[C@H](CO)C(O)C2(F)F)c(=O)n1 (single isomer, unassigned; (+)) [Gemcitabine hydrochloride, (+)-2′-deoxy-2′,2′-difluorocytidene, reference compound]
Relative tumor volume on Day 29 Average ± standard deviation ([1]; Gemcitabine hydrochloride 200 mg/kg alone, four times every three days, intravenous): 3.41 ± 0.41
